Measurements published in patent US20220105096A1, “INHIBITORS OF HUMAN IMMUNODEFICIENCY VIRUS REPLICATION” (ViiV HEALTHCARE UK (NO.5) LIMITED, priority 2019, published 2022).

Key:
[1] = Pharmacokinetic parameters in vivo, mouse; set-up: species or system male CD1 mice; conditions: male, CD1, plasma
Description: PK was investigated in male CD1 mice, Wistar Han Rats, Cynomolgus monkeys, and Beagle Dogs. Two groups of animals (N=3 per group) received test compound either as an intravenous (IV) dose (1 mg/kg) or by oral gavage (5 mg/kg solution and suspension). Drug was formulated in 90% PEG 400, 10% ethanol for IV administration and in 90% PEG400, 5% ethanol for PO administration. Blood samples were collected at 0.167, 0.25, 0.5, 0.75, 1, 2, 3, 5, 7, 24, 48, 72 and 96 h post dose for IV; 0.25, 0.5, 0.75, 1, 2, 3, 5, 7, 24, 48, 72 and 96 h post dose for oral. Blood samples were collected into K3EDTA tubes and centrifuged at 1500 to 2000×g to obtain plasma. Plasma samples were stored at −20° C. until analysis by LC-MS/MS. All […] samples were injected on an Exion LC 4500 Triple Quad™ LC-MS/MS system. The analytical column used was a Phenomenex C18 (C18, 4.6 mm×50 mm, 5 μm) maintained at room temperature. Mobile Phase A consisted of 0.1% (v/v) formic acid in MilliQ water. Mobile Phase B consisted of 100% methanol. The flow rate was 1 mL/min. […] All LC-MS/MS analysis parameters are captured electronically in the raw data files. The PK parameters were obtained by non-compartmental analysis of plasma concentration vs time data (Phoenix WinNonlin v8). The peak concentration (Cmax) and time for Cmax (Tmax) were recorded directly from experimental observations. The area under the curve from time zero to the last sampling time [AUC0-T] and the area under the curve from time zero to infinity [AUCINF] were calculated using a combination of linear and log trapezoidal summations. The total plasma clearance (CLTp), steady-state volume of distribution (Vss), apparent elimination half-life (T-HALF), and mean residence time (MRT) were estimated after IV administration. Estimations of AUC and T-HALF were made using a minimum of three timepoints with quantifiable concentrations. The absolute oral bioavailability (F) was estimated as the ratio of dose-normalized AUC values following oral and IV doses.

[2] = Subcutaneous in vivo PK experiment in rat; set-up: species or system Wistar Han Rats; conditions: subcutaneous injection 20 mg/kg
Description: Drug was formulated in 1% Kolliphor P188/1% PEG3350/3.5% Mannitol/94.5% Water and then administered to Wistar Han Rats as a subcutaneous injection at a dose of 20 mg/kg. Blood samples were collected at 0.167, 0.25, 0.5, 0.75, 1, 2, 3, 5, 7, 24, 48, 72, 96 h, and then every 3 days for up to 122 days. Blood samples were collected into K3EDTA tubes and centrifuged at 1500 to 2000×g to obtain plasma. Plasma samples were stored at −20° C. until analysis by LC-MS/MS.

CYP2B6 = assay: Cytochrome P450 (CYP2B6) induction in cryopreserved human hepatocytes; assay type: cell-based; conditions: hepatocytes from three individual donors, 0.12 to 30 μM, 48 hours
Description: Following the guidance of the FDA (“In Vitro Metabolism- and Transporter-Mediated Drug-Drug Interaction Studies Guidance for Industry”), the potential of Example 1 and Example 60.2 to induce CYP2B6 expression was tested using hepatocytes from the same three individual donors (rather than pooled donors), and changes in enzyme mRNA levels were evaluated using the “fold-change method”. In this test a fold-change in mRNA levels less than 2-fold is considered a negative finding, while a change ≥2-fold is considered a positive finding.
Compounds were tested in a CYP induction assay using inducible cryopreserved human primary hepatocytes from three donors to determine the potential to cause induction (as measured by an increase in mRNA transcription) of CYP2B6. […] At the end of the incubation, the integrity of cell monolayers, cell density and viability were evaluated to assess cytotoxicity effects. […] It was then used in reverse transcription polymerase chain reactions (RT-PCR) to quantify the amount of specific mRNA species encoding human CYP3A4, CYP2B6, and CYP1A2 genes.
The induction potential of test compounds and controls was compared to known CYP2B6 inducer Phenobarbital (1000 μM). The results of this assay are expressed as fold induction. […] The cytotoxicity was also assessed in parallel to avoid false positive CYP induction results due to cytotoxicity. […]

In the case of Cn1nc(NS(C)(=O)=O)c2c(Cl)ccc(-n3c([C@H](Cc4cc(F)cc(F)c4)NC(=O)Cn4nc(C(F)F)c5c4C(F)(F)[C@@H]4C[C@H]54)nc4nc(OCCC(C)(F)F)ccc4c3=O)c21 (atropisomer, axis not shown; (P)) [Example 1, N—((S)-1-((3P)-3-(4-chloro-1-methyl-3-(methylsulfonamido)-1H-indazol-7-yl)-7-(3,3-difluorobutoxy)-4-oxo-3,4-dihydropyrido[2,3-d]pyrimidin-2-yl)-2-(3,5-difluorophenyl)ethyl)-2-((3bS,4aR)-3-(difluoromethyl)-5,5-difluoro-3b,4,4a,5-tetrahydro-1H-cyclopropa[3,4]cyclopenta[1,2-c]pyrazol-1-yl)acetamide], the clearance ([1]; IV 1 mg/kg) is reported as 0.106 L/h/kg, the half-life ([1]; IV 1 mg/kg) is reported as 0.325 days and the Vd ([1]; IV 1 mg/kg, read-out: Vss) is reported as 1.14 L/kg. For the same compound, the bioavailability ([1]; oral gavage 5 mg/kg vs IV 1 mg/kg) was 76.7%, the half-life ([2]; Wistar Han, plasma, sc, read-out: apparent half-life of compound in plasma (converted)) was 50 days and the “time drug concentrations were maintained above 5 ng/mL” value [2] was 87 days. For the same compound, the “CYP2B6 induction finding (mRNA fold-change method)” value (CYP2B6) was “negative finding (a fold-change in mRNA levels less than 2-fold is considered a negative finding)”.
